Data taken from ChEMBL document CHEMBL1201862, “PubChem BioAssay data set” (2004).
The source made the active and inactive calls.

Assays:
[1] = target: T1, Replicative DNA helicase DnaB (Mycobacterium tuberculosis, UniProt P9WMR3); experiment: DnaB intein splicing inhibitors, dose response, biochemical, cell-free fluorescence (AID 449749); format: functional
T1 sequence (P9WMR3 whole entry): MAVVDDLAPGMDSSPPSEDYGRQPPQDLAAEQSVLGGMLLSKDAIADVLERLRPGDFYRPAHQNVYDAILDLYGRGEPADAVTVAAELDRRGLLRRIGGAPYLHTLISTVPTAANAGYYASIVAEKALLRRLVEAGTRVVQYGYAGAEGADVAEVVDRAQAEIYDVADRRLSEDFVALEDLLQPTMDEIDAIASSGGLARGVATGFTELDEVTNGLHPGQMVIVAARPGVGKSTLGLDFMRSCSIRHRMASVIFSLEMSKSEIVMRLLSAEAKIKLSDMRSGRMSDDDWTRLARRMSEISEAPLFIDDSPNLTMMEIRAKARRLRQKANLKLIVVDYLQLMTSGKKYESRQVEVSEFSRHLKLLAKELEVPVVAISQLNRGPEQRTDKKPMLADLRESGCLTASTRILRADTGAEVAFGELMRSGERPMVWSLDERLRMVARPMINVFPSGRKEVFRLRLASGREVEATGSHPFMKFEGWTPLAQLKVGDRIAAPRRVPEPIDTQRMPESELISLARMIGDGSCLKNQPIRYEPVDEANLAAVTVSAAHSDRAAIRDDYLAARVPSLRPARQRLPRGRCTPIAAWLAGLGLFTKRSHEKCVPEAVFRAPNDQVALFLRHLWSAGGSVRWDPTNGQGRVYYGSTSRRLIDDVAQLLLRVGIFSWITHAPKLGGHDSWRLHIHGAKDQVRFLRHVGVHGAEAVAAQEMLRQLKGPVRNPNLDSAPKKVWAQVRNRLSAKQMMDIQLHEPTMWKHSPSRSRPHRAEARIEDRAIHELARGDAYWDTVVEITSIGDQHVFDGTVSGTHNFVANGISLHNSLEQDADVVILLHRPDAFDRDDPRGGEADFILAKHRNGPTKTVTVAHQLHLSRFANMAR

[2] = Luminescence Cell-Based Dose Retest to Confirm Inhibitors of Cancer Stem Cells. [Related pubchem assays (depositor defined):AID2717, AID2721]; format: functional; conditions: Homo sapiens
Nonstructural protein 1 = Nonstructural protein 1 (Influenza A virus, UniProt Q194T2); format: functional, Influenza A virus (A/California/07/2009(H1N1))
Protein RecA = target: T2, Protein RecA (Mycobacterium tuberculosis, UniProt P9WHJ3); experiment: Fluorescence Cell-Free Homogeneous Dose Retest to Identify Inhibitors of RecA-Intein Splicing Activity. [Related pubchem assays (depositor defined):AID2097, AID2223, AID489010, AID492950]; format: functional
T2 sequence (P9WHJ3 whole entry): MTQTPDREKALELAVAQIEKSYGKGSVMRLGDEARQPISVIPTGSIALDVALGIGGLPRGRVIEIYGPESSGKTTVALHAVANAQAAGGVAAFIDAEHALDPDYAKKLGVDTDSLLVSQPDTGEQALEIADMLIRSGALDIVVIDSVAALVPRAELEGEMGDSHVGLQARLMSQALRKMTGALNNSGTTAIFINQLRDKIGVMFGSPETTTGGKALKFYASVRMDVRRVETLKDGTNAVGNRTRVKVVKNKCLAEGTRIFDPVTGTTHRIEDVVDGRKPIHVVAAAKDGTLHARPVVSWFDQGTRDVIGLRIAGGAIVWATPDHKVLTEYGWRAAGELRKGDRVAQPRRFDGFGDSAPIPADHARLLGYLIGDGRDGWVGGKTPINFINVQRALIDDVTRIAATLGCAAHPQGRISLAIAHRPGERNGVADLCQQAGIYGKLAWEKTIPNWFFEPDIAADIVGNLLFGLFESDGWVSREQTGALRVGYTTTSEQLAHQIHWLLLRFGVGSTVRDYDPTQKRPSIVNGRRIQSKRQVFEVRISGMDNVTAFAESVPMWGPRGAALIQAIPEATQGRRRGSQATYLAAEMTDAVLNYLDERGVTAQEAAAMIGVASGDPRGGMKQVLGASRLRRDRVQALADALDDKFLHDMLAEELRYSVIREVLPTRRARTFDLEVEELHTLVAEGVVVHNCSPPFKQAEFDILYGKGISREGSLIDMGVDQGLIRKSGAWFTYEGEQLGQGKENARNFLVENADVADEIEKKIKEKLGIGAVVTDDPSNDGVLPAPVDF

[3] = target: Neurotensin receptor type 1 (Homo sapiens, UniProt P30989); format: functional;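 note: Image-based confirmatory dose-response assay measuring agonist activity at NTR1; NTR1-expressing U2OS osteosarcoma cells imaged for beta-arrestin GFP spot formation; agonist potency where compounds increase beta-arrestin recruitment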
[4] = target: Multidrug resistance protein CDR2 (Candida albicans (strain SC5314 / ATCC MYA-2876) (Yeast), UniProt P78595); experiment: CaCDR2 efflux pump inhibitors in yeast, dose response, S. cerevisiae AD1-8u, singleplex, Cherry Pick1 hits (AID 588604); format: functional
Sequence of Multidrug resistance protein CDR2 (P78595 whole entry): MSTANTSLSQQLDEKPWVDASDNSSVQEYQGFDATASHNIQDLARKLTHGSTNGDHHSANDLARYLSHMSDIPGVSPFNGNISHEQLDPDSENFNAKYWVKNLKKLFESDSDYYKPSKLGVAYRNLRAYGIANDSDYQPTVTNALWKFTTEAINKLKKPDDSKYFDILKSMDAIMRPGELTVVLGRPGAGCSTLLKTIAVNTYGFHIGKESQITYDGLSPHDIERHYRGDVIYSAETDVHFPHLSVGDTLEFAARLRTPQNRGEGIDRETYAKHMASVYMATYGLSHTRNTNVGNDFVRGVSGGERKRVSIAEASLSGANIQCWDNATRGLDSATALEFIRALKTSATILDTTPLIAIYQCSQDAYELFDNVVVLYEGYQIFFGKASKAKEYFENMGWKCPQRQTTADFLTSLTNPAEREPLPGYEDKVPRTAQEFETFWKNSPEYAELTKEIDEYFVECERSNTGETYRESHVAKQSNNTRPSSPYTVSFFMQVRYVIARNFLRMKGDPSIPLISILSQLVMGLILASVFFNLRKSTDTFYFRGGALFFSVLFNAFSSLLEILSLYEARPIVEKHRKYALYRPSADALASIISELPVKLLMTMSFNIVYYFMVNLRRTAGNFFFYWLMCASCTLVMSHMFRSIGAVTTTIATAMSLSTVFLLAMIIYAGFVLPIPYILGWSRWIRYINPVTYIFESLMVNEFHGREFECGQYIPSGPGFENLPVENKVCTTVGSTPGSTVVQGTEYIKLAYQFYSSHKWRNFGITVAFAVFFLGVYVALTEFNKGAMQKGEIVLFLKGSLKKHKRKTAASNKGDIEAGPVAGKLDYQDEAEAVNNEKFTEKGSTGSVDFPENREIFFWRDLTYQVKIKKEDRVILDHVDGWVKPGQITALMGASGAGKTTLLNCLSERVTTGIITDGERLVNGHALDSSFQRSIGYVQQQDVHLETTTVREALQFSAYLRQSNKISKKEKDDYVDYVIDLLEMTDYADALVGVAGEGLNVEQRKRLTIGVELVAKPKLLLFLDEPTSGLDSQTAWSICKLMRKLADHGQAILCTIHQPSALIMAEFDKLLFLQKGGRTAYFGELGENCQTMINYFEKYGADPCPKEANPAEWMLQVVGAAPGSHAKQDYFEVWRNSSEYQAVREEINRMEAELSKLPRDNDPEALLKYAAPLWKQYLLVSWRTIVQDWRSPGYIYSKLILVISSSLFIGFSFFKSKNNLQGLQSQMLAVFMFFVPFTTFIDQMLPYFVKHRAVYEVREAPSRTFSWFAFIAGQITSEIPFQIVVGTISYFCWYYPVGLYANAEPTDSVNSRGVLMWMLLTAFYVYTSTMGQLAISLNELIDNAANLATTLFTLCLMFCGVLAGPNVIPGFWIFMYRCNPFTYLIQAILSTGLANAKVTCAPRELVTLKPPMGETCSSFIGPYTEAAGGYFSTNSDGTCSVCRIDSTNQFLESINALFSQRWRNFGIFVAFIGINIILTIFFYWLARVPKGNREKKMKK

Sequence of Neurotensin receptor type 1 (P30989 whole entry): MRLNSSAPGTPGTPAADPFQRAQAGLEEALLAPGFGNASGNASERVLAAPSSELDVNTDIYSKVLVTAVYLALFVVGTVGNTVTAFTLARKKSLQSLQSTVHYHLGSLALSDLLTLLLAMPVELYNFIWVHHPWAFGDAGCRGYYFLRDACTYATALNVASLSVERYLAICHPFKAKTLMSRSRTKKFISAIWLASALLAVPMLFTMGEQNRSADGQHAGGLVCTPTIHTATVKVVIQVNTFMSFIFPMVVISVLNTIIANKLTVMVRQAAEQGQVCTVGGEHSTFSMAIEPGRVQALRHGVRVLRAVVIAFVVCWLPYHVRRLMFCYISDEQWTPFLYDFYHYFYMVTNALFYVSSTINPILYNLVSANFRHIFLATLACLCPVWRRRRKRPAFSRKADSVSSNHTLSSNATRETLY
Sequence of Nonstructural protein 1 (Q194T2 whole entry): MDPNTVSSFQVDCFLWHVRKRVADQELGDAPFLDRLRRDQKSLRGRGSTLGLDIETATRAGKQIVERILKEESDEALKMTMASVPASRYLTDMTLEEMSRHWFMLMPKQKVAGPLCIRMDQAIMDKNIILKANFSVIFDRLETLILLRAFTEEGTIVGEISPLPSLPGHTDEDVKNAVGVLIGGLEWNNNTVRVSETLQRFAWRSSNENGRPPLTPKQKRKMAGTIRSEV

CCCCCc1cc(=O)oc2c(C(CCN3CCCC(C)C3)c3ccc(N(C)C)cc3)c(OC)cc(OC)c12 (stereo unspecified)
active: AC50 [1] 8.48 µM | AC50 [2] 5.3 µM | IC50 (Nonstructural protein 1) 5.48 µM | EC50 (Protein RecA) 8.08 µM | EC50 [3] 17.7 µM | EC50 [4] 25.4 µM
